Data from ChEMBL document CHEMBL1146448, “Cavernosolide, a New Sesterterpene from a Tyrrhenian Sponge” (J Nat Prod, 1997).
Values after ≈ are worked out from the molar mass of the structure shown.

What was measured:
[1] = Toxicity in Artemia salina; type: organism-based; details: in vivo
[2] = Toxicity in Gambusia affinis; type: organism-based; details: in vivo

CC(=O)O[C@H]1O[C@@H](C2=CC(=O)O[C@@H]2O)C[C@@H]2[C@@H]1CC[C@H]1[C@@]2(C)CC[C@H]2C(C)(C)CCC[C@]12C [CAVERNOSOLIDE]
LC50 [1]: 0.37 µg/mL (≈ 0.803 µM)
LC50 [2]: 0.75 µg/mL (≈ 1.63 µM)
